Source: BindingDB's records for doi:10.1080/14756360903179484 (University of Karachi, 2010)
pIC50: −log10 of the molar value.

Biological target: T1, Seed linoleate 13S-lipoxygenase-1 (Glycine max, UniProt P08170)
T1 sequence (P08170 whole entry): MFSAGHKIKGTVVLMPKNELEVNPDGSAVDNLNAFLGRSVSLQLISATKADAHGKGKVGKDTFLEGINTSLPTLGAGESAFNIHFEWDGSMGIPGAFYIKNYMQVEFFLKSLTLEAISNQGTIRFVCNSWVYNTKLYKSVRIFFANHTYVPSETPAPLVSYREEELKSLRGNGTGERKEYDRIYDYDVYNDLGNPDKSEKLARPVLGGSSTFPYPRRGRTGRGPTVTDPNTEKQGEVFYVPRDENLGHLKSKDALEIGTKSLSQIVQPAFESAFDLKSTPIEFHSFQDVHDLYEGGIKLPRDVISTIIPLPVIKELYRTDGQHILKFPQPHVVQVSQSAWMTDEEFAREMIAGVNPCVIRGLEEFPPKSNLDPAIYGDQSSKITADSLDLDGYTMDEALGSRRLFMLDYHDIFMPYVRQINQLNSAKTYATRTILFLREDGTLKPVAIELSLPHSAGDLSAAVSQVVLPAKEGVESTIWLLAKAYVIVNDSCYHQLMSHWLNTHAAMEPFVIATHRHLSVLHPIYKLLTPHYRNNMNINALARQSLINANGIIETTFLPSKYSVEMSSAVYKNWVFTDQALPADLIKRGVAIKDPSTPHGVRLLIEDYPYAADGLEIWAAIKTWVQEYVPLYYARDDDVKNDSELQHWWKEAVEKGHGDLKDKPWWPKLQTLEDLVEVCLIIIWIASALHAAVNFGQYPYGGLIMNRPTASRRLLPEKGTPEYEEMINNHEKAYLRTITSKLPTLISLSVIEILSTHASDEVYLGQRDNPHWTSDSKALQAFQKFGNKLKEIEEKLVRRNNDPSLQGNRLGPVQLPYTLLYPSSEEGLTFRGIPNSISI
Assay: Lipoxygenase Inhibition Assay
Settings: pH 8; 25 °C
Procedure: A mixture of test compound (10 μL; 1 mM) in MeOH, type-1B lipoxygenase (EC 1.13.11.12; from soyabean) (20 μL; 70 units) in 0.1 M aqueous phosphate buffer (pH 8.0) in a total volume of 160 μL was incubated for 10 min at 25°C. Then the reaction was initiated by the addition of a solution of linoleic acid as substrate (10 μL; 20 μM), resulting in the formation of (9Z,11E,13S)-13-hydroperoxyoctadeca-9,11-dienoate. The change in UV absorbance at 234 nm was followed over a period of 6 min. All reactions were performed in triplicate, and analyzed with a 96-well plate reader (SpectraMax Plus 384; Molecular Devices).

pIC50 | SMILES
4.00 | COc1ccc(-c2coc3cc(O)cc(O)c3c2=O)cc1 [5,7-dihydroxy-3-(4-methoxyphenyl)-4H-chromen-4-one]
4.26 | COc1cc(-c2coc3cc(O)c(O)cc3c2=O)ccc1O [Conferin (1)]
